# In PubChem BioAssay (NCI):
#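 How tested: cells in 96-well plates exposed to compound for 48 hours at five concentrations. TGI marks complete inhibition of growth.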
# Tests used:
# Assay in all cases: NCI-60 cell line screen, 48 h
# LOX IMVI melanoma = tested on: LOX IMVI melanoma
# RXF 393 renal = tested on: RXF 393 renal
# SK-MEL-2 melanoma = tested on: SK-MEL-2 melanoma
# OVCAR-8 ovarian = tested on: OVCAR-8 ovarian
# UO-31 renal = tested on: UO-31 renal
# SF-539 CNS = tested on: SF-539 CNS
# NCI/ADR-RES ovarian = tested on: NCI/ADR-RES ovarian
# MALME-3M melanoma = tested on: MALME-3M melanoma
# SR leukemia = tested on: SR leukemia
# HT29 colon = tested on: HT29 colon
# SK-MEL-5 melanoma = tested on: SK-MEL-5 melanoma
# HS 578T breast = tested on: HS 578T breast
# MOLT-4 leukemia = tested on: MOLT-4 leukemia
# M14 melanoma = tested on: M14 melanoma
# CAKI-1 renal = tested on: CAKI-1 renal
# NCI-H226 lung = tested on: NCI-H226 lung
# HCT-116 colon = tested on: HCT-116 colon
# HOP-92 NSCLC = tested on: HOP-92 NSCLC
# UACC-257 melanoma = tested on: UACC-257 melanoma
# OVCAR-3 ovarian = tested on: OVCAR-3 ovarian
# HCC-2998 colon = tested on: HCC-2998 colon
# PC-3 prostate = tested on: PC-3 prostate
# A549 NSCLC = tested on: A549 NSCLC
# DU-145 prostate = tested on: DU-145 prostate
# SF-268 CNS = tested on: SF-268 CNS
# KM12 colon = tested on: KM12 colon
# SNB-19 CNS = tested on: SNB-19 CNS
# SW-620 colon = tested on: SW-620 colon
# MDA-MB-231 breast = tested on: MDA-MB-231 breast
# NCI-H522 lung = tested on: NCI-H522 lung
# MCF7 breast = tested on: MCF7 breast
# COLO 205 colon = tested on: COLO 205 colon
# 786-0 renal = tested on: 786-0 renal
# UACC-62 melanoma = tested on: UACC-62 melanoma
# SNB-75 CNS = tested on: SNB-75 CNS
# TK-10 renal = tested on: TK-10 renal
# MDA-N = tested on: MDA-N
# RPMI-8226 leukemia = tested on: RPMI-8226 leukemia
# A498 renal = tested on: A498 renal
# OVCAR-5 ovarian = tested on: OVCAR-5 ovarian
# K-562 leukemia = tested on: K-562 leukemia
# SK-OV-3 ovarian = tested on: SK-OV-3 ovarian
# OVCAR-4 ovarian = tested on: OVCAR-4 ovarian
# SF-295 CNS = tested on: SF-295 CNS
# NCI-H23 lung = tested on: NCI-H23 lung
# MDA-MB-435 = tested on: MDA-MB-435
# CCRF-CEM leukemia = tested on: CCRF-CEM leukemia
# IGROV1 ovarian = tested on: IGROV1 ovarian
# U251 CNS = tested on: U251 CNS
# HL-60(TB) leukemia = tested on: HL-60(TB) leukemia
# ACHN renal = tested on: ACHN renal
# SK-MEL-28 melanoma = tested on: SK-MEL-28 melanoma
# EKVX NSCLC = tested on: EKVX NSCLC
# HCT-15 colon = tested on: HCT-15 colon
# SN12C renal = tested on: SN12C renal
# HOP-62 NSCLC = tested on: HOP-62 NSCLC
# BT-549 breast = tested on: BT-549 breast
# NCI-H460 lung = tested on: NCI-H460 lung
# T-47D breast = tested on: T-47D breast
structure (smiles),measurement,setting,value
CC1Cc2cc(O)ccc2C2[C@@H]1C1CC[C@H](O)[C@@]1(C)C[C@@H]2O[N+](=O)[O-] (some centres undefined),TGI,LOX IMVI melanoma,32.7 µM
same,TGI,RXF 393 renal,29.3 µM
same,TGI,SK-MEL-2 melanoma,55.3 µM
same,TGI,OVCAR-8 ovarian,74 µM
same,TGI,UO-31 renal,63.7 µM
same,TGI,SF-539 CNS,18.9 µM
same,TGI,NCI/ADR-RES ovarian,38.9 µM
same,TGI,MALME-3M melanoma,> 79.6 µM
same,TGI,SR leukemia,> 56.8 µM
same,TGI,HT29 colon,31.1 µM
same,TGI,SK-MEL-5 melanoma,17.8 µM
same,TGI,HS 578T breast,22.3 µM
same,TGI,MOLT-4 leukemia,> 100 µM
same,TGI,M14 melanoma,64.1 µM
same,TGI,CAKI-1 renal,73.6 µM
same,TGI,NCI-H226 lung,> 100 µM
same,TGI,HCT-116 colon,31.1 µM
same,TGI,HOP-92 NSCLC,97.6 µM
same,TGI,UACC-257 melanoma,72.3 µM
same,TGI,OVCAR-3 ovarian,> 84.1 µM
same,TGI,HCC-2998 colon,22 µM
same,TGI,PC-3 prostate,> 100 µM
same,TGI,A549 NSCLC,79.7 µM
same,TGI,DU-145 prostate,76.3 µM
same,TGI,SF-268 CNS,> 93.1 µM
same,TGI,KM12 colon,> 79.1 µM
same,TGI,SNB-19 CNS,98.7 µM
same,TGI,SW-620 colon,> 100 µM
same,TGI,MDA-MB-231 breast,85.8 µM
same,TGI,NCI-H522 lung,61.3 µM
same,TGI,MCF7 breast,25.3 µM
same,TGI,COLO 205 colon,50.6 µM
same,TGI,786-0 renal,65.3 µM
same,TGI,UACC-62 melanoma,44 µM
same,TGI,SNB-75 CNS,> 100 µM
same,TGI,TK-10 renal,63.8 µM
same,TGI,MDA-N,6.07 µM
same,TGI,RPMI-8226 leukemia,50.2 µM
same,TGI,A498 renal,78.7 µM
same,TGI,OVCAR-5 ovarian,> 100 µM
same,TGI,K-562 leukemia,49.4 µM
same,TGI,SK-OV-3 ovarian,> 100 µM
same,TGI,OVCAR-4 ovarian,> 100 µM
same,TGI,SF-295 CNS,39.2 µM
same,TGI,NCI-H23 lung,67.8 µM
same,TGI,MDA-MB-435,16.9 µM
same,TGI,CCRF-CEM leukemia,41.9 µM
same,TGI,IGROV1 ovarian,> 100 µM
same,TGI,U251 CNS,23 µM
same,TGI,HL-60(TB) leukemia,8.3 µM
same,TGI,ACHN renal,> 100 µM
same,TGI,SK-MEL-28 melanoma,81.8 µM
same,TGI,EKVX NSCLC,> 100 µM
same,TGI,HCT-15 colon,> 78.7 µM
same,TGI,SN12C renal,> 94.4 µM
same,TGI,HOP-62 NSCLC,44.4 µM
same,TGI,BT-549 breast,48.9 µM
same,TGI,NCI-H460 lung,> 95.7 µM
same,TGI,T-47D breast,> 84.3 µM
